This is an account of results in ChEMBL document CHEMBL4043296 (J Med Chem, 2018).

The target of data set [1] is T1, Muscarinic acetylcholine receptor M4 (Homo sapiens, UniProt P08173).
T1 sequence (P08173 whole entry): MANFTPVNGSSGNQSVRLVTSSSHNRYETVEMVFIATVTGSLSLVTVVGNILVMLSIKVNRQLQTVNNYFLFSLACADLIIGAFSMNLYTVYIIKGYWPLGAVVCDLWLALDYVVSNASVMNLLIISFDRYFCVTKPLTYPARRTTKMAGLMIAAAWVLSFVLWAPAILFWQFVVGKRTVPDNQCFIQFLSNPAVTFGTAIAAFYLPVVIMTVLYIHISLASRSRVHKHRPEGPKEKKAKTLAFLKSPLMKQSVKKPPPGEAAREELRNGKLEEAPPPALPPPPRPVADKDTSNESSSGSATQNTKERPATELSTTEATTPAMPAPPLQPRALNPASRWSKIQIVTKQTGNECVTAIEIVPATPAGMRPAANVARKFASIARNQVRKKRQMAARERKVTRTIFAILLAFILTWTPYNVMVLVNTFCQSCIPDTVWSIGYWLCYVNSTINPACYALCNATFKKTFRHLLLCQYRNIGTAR
Briefly: Agonist activity at human SP/Myc epitope-tagged muscarinic M4 receptor expressed in HEK293T cells assessed as RLuc8-fused Galphaq activation after 2 mins by BRET assay. It counts as cell-based, HEK-293T. For orientation: BRET reads energy transfer from a luciferase to a nearby fluorophore.

The target of data set [2] is T1, Muscarinic acetylcholine receptor M4. Briefly: Displacement of [3H]NMS from human muscarinic M4 receptor expressed in CHO cell membranes after 2 hrs by liquid scintillation counting method. Background: Loss of bound radioactivity is the signal in a displacement assay; it reports binding, not function.
Data set [3] shares this target. Kind of data set: (§1) Antagonist activity at human SP/Myc epitope-tagged muscarinic M4 receptor expressed in HEK293T cells assessed as inhibition of carbachol-induced mVenus-fused beta-arrestin2 recruitment preincubated for 15 mins followed by carbachol induction measured after 2 mins by BRET assay. The class given is cell-based, HEK-293T. A general note: Arrestin recruitment assays detect the binding of arrestin to an activated receptor.

In data set [4] the target is T2, Muscarinic acetylcholine receptor M4 (Homo sapiens) (UniProt P08173).
T2 sequence (whole entry): T1 sequence (P08173 whole entry)
The description is as §1. The class given is cell-based. The settings on record: HEK-293T.

The target of data set [5] is T3, Alpha-1B adrenergic receptor (Homo sapiens, UniProt P35368).
T3 sequence (P35368 whole entry): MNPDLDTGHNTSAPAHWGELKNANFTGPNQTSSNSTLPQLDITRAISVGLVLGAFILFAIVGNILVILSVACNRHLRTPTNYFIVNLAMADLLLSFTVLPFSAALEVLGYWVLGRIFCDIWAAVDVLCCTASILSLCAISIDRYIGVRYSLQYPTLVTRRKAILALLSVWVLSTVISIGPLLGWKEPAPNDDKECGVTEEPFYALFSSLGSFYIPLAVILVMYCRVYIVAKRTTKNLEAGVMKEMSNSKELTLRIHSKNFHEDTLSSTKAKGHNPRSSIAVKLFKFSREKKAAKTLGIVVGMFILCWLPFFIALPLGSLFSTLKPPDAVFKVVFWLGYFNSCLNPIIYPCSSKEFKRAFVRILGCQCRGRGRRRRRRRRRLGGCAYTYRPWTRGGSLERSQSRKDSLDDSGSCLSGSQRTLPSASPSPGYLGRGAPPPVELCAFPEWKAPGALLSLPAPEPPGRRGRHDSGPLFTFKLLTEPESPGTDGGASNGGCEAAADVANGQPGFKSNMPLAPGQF
Briefly: Displacement of [3H]prazosin from human recombinant alpha-1B adrenergic receptor expressed in CHO cell membranes after 30 mins by liquid scintillation counting method.

Data set [6] has as its target Sodium-dependent dopamine transporter (Rattus norvegicus, UniProt P23977). Kind of data set: Displacement of [3H]WIN 35,428 from DAT in Sprague-Dawley rat striatum after 120 mins by scintillation counting method.
In data set [7] the target is T4, D(4) dopamine receptor (Homo sapiens, UniProt P21917).
T4 sequence (P21917 whole entry): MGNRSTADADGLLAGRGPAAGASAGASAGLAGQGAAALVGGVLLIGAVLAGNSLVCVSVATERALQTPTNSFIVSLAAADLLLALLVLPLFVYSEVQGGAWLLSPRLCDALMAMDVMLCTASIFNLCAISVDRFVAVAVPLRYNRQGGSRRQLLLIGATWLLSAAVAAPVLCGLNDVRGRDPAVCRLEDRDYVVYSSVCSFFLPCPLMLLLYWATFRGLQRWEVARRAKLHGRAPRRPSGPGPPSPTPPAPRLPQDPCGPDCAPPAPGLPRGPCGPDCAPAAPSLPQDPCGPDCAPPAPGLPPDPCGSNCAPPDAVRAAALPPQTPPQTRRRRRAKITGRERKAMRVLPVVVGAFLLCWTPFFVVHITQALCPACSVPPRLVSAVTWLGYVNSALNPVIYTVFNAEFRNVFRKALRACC
Kind of data set: Antagonist activity at human SP/Myc epitope-tagged dopamine D4 receptor expressed in HEK293T cells assessed as inhibition of dopamine-induced mVenus-fused beta-arrestin2 recruitment preincubated for 15 mins followed by dopamine induction measured after 2 mins by BRET assay. The class given is cell-based, HEK-293T.

The target in data set [8] is Beta-1 adrenergic receptor (Homo sapiens, UniProt P08588). Kind of data set: Displacement of [3H]CGP12177 from human recombinant beta1 adrenergic receptor expressed in HEK293 cell membranes after 90 mins by beta counting method.
For data set [9], the target named is T5, Muscarinic acetylcholine receptor M1 (Homo sapiens) (UniProt P11229).
T5 sequence (whole entry): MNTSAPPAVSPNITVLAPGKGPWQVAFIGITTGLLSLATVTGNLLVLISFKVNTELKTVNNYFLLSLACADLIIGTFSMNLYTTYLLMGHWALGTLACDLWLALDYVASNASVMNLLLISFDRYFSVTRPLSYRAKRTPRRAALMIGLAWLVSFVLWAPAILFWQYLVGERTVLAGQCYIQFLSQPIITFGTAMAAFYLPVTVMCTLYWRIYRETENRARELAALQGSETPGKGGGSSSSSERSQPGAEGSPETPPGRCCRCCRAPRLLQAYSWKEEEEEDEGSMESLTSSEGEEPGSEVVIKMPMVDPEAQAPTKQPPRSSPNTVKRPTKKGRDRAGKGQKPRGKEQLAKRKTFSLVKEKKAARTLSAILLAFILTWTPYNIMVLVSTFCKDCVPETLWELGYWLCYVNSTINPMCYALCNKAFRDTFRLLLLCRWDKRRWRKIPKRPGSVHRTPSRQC
Kind of data set: Agonist activity at human SP/Myc epitope-tagged muscarinic M1 receptor expressed in HEK293T cells assessed as RLuc8-fused Galphaq activation after 2 mins by BRET assay relative to carbachol. It counts as cell-based. The settings on record: HEK-293T.

In data set [10] the target is T4, D(4) dopamine receptor. Briefly: Antagonist activity at human SP/Myc epitope-tagged dopamine D4 receptor expressed in HEK293T cells assessed as inhibition of dopamine-induced RLuc8-fused Galphai1 activation preincubated for 15 mins followed by dopamine induction measured after 2 mins by BRET assay. It counts as cell-based, HEK-293T.
In data set [11] the target is T6, Muscarinic acetylcholine receptor M1 (Homo sapiens, UniProt P11229).
T6 sequence (P11229 whole entry): T5 sequence (whole entry)
Briefly: Displacement of [3H]NMS from human muscarinic M1 receptor expressed in CHO cell membranes after 2 hrs by liquid scintillation counting method.

Data set [12] deals with Sodium-dependent serotonin transporter (Rattus norvegicus, UniProt P31652). Kind of data set: Displacement of [3H]-citalopram from SERT in Sprague-Dawley rat midbrain after 60 mins by scintillation counting method.
The nature of data set [13]: Half life in mouse liver microsomes at 0.5 uM preincubated for 30 mins followed by NADPH addition measured over 30 mins by HPLC-MS/MS method. The class given is ADME, microsome.
Another data set concerns the target D(2) dopamine receptor (Homo sapiens, UniProt P14416). Briefly: Displacement of [3H]N-methylspiperone from human dopamine D2 receptor expressed in HEK293 cell membranes after 1 hr by scintillation counting method.

Each structure is given as a SMILES string.

Sodium-dependent serotonin transporter, sequence (P31652 whole entry): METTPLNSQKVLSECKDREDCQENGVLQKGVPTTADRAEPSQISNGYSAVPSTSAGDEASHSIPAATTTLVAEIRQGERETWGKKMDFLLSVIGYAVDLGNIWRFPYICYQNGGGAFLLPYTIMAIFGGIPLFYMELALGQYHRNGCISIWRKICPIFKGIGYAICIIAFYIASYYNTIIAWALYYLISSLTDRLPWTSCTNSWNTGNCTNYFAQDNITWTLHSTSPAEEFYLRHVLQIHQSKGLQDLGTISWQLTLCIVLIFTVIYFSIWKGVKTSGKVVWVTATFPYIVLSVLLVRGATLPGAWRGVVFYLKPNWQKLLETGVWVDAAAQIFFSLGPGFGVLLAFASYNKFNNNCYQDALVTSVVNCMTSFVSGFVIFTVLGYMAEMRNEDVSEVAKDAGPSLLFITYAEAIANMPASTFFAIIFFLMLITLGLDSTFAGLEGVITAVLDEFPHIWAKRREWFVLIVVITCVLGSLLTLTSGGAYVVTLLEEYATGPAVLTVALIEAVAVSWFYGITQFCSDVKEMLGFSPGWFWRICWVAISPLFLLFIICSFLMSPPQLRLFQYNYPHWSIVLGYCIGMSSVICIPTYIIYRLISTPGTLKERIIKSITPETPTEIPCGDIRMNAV
Sodium-dependent dopamine transporter, sequence (P23977 whole entry): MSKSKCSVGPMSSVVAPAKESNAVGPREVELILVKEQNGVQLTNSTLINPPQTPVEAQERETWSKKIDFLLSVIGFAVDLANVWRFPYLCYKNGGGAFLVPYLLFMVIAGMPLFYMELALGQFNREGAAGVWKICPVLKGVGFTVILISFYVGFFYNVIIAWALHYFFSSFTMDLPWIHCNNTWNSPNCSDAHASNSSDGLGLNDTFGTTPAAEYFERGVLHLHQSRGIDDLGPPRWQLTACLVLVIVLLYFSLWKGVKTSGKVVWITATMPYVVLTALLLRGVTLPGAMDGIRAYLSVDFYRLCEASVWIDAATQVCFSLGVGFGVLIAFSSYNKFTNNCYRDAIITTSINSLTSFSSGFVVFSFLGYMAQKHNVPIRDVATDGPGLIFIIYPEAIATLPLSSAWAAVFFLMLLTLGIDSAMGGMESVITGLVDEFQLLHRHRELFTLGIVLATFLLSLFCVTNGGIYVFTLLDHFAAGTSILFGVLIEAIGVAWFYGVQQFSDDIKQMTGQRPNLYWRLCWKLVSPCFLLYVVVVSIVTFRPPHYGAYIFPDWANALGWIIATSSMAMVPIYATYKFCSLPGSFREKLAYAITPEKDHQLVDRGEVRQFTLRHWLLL
D(2) dopamine receptor, sequence (P14416 whole entry): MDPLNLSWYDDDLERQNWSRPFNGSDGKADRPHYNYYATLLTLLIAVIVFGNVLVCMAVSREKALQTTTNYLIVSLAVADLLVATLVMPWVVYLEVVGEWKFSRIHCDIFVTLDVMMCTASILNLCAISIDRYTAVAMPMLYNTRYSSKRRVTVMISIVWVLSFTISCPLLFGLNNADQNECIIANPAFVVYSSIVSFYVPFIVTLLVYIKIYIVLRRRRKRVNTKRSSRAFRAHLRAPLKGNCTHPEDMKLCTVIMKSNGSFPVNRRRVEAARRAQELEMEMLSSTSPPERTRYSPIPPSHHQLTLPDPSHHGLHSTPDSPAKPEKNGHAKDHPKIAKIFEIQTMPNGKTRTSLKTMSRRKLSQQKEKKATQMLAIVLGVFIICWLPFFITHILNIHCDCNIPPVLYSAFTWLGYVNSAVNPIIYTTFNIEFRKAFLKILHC
Beta-1 adrenergic receptor, sequence (P08588 whole entry): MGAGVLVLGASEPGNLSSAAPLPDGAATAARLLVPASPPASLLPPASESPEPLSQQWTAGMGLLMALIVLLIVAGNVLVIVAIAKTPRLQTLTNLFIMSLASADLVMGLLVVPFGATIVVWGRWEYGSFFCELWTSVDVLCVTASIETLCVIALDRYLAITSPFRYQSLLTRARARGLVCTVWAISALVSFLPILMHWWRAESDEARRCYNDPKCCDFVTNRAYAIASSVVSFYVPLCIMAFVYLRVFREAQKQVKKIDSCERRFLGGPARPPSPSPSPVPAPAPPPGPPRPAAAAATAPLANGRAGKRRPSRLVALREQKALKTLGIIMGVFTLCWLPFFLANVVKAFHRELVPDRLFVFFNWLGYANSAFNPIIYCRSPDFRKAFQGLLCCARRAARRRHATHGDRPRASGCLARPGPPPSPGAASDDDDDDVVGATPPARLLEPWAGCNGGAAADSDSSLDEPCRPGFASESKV

As a reminder, the EC50 is the midpoint of the concentration-response curve. A word on the Ki: it is the dissociation constant of the complex between target and ligand, obtained from inhibition or displacement. By IC50 is commonly meant the concentration needed to halve the response being measured. The Emax is the size of the effect at its maximum, as opposed to the concentration needed. What is called half-life is the time in which the quantity being followed falls by half. Low values mean rapid decline, high ones slow decline. Regarding `O=C1CCc2ccccc2N1CCCN1CCN(c2ccccc2)CC1`, the EC50 in data set [1] was 589 nM. Also, the inhibition constant (Ki) in data set [2] is 9330 nM; in data set [5], 74.1 nM; in data set [6] it was 8710 nM; in data set [8] it was 32400 nM; in [11] it was 4270 nM; in data set [12], 5010 nM. This compound had a Ki on D(2) dopamine receptor of 1100 nM. The figures for the IC50 (in data set [3]; on D(4) dopamine receptor [7]; at D(4) dopamine receptor [10]) were 12000 nM, 0.724 nM and 9.77 nM, respectively. For the same compound, the Imax in data set [4] was 74%. In addition, the Emax in data set [9] worked out at 42%. Also, in data set [13], the half-life at 0.5 µM is 8.71 min.

Consider `O=C1CCc2ccccc2N1CCCN1CCC(Cc2ccccc2)CC1`, for which, in data set [1], the EC50 is 148 nM. Moreover, the Ki is 724 nM in data set [2]; 224 nM in data set [5]; 447 nM in data set [6]; 10200 nM in [8]; 363 nM in data set [11]; 46.8 nM in data set [12]. In addition, the Ki on D(2) dopamine receptor is 912 nM. For the same compound, the IC50 in data set [3] was 1230 nM; on D(4) dopamine receptor [7], 575 nM; on D(4) dopamine receptor [10] it was 170 nM. In [4], the Imax is 72%. Besides, the Emax in [9] is 25%. The same compound came in with a half-life at 0.5 µM in [13] of 3.5 min.
